Laboratory results published in patent US11819492B2, “Natural product derivatives for inhibiting cellular necroptosis, ferroptosis and oxytosis” (Institut National de la Sante et de la Recherche Medicale …, priority 2016, dated 2023).

Columns and labels:
[1] = test system: 456 kinases, including eight lipid kinases; assay: KINOMEscan Max competition binding assay, profiling against 456 kinases; design: species or system human; conditions: poor affinity = over 30% of kinase still on the affinity matrix, FIG. 8
Method: (§1) This experimental approach quantitatively measures the ability of a compound to compete with an immobilized, active-site directed ligand. […] The ability of compound 1 to compete with the immobilized ligand is measured via quantitative PCR of the DNA tag. The codes reported on the FIG. 8 indicate the subclasses of protein kinases: CMGC for CDKs, MAP kinases, GSK and CDK-like kinases; AGC for Protein kinase A, G, and C families (PKA, PKC, PKG); CAMK for Ca2+/calmodulin-dependent protein kinases; CK1, Cell Kinases 1 (originally known as Casein Kinase 1); STE, STE Kinases (Homologs of yeast STErile kinases); TKL, Tyrosine Kinases-Like; TK, Tyrosine Kinases. Each kinase tested in the assay panel is marked with a circle. The hit kinase reported, RIPK1, is marked with a black circle.

RIPK1 = biological target: T1, RIPK1 (Homo sapiens, UniProt Q13546); assay: KINOMEscan Max competition binding assay, RIPK1; conditions: RIPK1, FIG. 8
T1 construct: DNA tag (qPCR read-out); purchased DiscoveRx Corporation, Fremont, USA (assay service)
T1 sequence (Q13546 1-671): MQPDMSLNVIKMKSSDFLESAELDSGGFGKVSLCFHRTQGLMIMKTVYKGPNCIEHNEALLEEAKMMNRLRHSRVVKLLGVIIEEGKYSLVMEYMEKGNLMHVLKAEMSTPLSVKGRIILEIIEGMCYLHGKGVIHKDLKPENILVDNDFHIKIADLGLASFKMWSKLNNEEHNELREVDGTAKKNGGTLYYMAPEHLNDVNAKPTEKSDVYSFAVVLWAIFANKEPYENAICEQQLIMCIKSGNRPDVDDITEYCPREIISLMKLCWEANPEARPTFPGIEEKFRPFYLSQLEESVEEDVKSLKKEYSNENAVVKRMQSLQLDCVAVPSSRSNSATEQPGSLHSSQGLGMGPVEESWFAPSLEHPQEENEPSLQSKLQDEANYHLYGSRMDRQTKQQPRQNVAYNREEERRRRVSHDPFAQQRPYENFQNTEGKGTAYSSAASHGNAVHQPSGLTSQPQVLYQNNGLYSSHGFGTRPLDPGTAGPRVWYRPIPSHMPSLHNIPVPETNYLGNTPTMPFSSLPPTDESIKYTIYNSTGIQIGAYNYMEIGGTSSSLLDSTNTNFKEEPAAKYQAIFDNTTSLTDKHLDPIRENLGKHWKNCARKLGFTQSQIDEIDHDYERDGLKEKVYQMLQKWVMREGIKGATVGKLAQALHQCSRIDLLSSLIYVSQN
Method: as §1

hRPE-1 cells = assay: Cytotoxicity on human retinal pigment epithelial cell line (MTS); type: cell-based; conditions: 0-50 μM tested, 24 hours, FIG. 5
From the text: A colorimetric MTS assay was used to calculate the percentage of cell viability.

[2] = test system: Jurkat FADD-deficient I 2.1 cells; assay: Hallmarks of TNF-α-induced necroptosis (plasma membrane permeabilization, intracellular ATP) in Jurkat FADD-deficient cells; type: cell-based, human; conditions: 0-50 μM, TNF-α 10 ng/ml, 24 hours
Method: Cells untreated by TNF-α are used as control (light grey curves). Cells were incubated at 37° C., 5% CO2 for 24 hours before performing the measurements of both plasma membrane permeabilization and intracellular ATP levels. Dead cells were detected by FACS analysis of Propidium Iodide-stained nuclei (FIG. 2). ATP Quantification is performed using the CellTiter-Glo® Luminescent Cell Viability Assay. The luminescent signal produced by a luciferase reaction is proportional to the amount of ATP present and the amount of ATP is directly proportional to the number of metabolically active cells (n=4) (FIG. 3).

[3] = test system: Human retinal pigment epithelial cell line, ARPE-19; assay: NaIO3-induced retinal cell death (cellular model of AMD), MTS viability assay; type: cell-based; conditions: subtoxic concentration (+/−20 μM), 10 mM NaIO3, 24 hours, P<0.001
Method: At it was previously shown (Hanus et al. Cell Death Discov. 2016, 2, 16054), NaIO3 is an oxidizing agent that induces necroptosis in retinal pigment epithelial cell line that can be inhibited by 200 μM of necrostatin-1. […] Human retinal pigment epithelial cell line, ARPE-19, was treated with 10 mM of NaIO3 as cellular model of age-related macular degeneration (AMD). […] Cells were then incubated at 37° C., 5% CO2 for 24 hours before performing MTS viability assay. Cell viability was monitored using CellTiter 96® AQueous Non-Radioactive Cell Proliferation Assay (Promega, Fitchburg, WI, USA), based on the water-soluble tetrazolium compound MTS (3-[4,5-dimethylthiazol-2-yl]-5-[3-carboxymethoxy-phenyl]-2-[4-sulfophenyl]-2H-tetrazolium, inner salt) according to the manufacturers instructions.

[4] = test system: Murine hippocampal neuronal cell line HT22; assay: Erastin-induced ferroptosis in HT22 cells, MTS viability assay; type: cell-based; conditions: 1 μM erastin, 24 hours, FIG. 14
Method: Murine hippocampal neuronal cell line HT22 was treated with 10 mM of (L)-glutamate (oxytosis initiator) or 1 μM erastin (ferroptosis initiator).
Cells were then incubated at 37° C., 5% CO2 for 24 hours before performing MTS viability assay. Cell viability was monitored using CellTiter 96® AQueous Non-Radioactive Cell Proliferation Assay (Promega, Fitchburg, WI, USA), based on the water-soluble tetrazolium compound MTS (3-[4,5-dimethylthiazol-2-yl]-5-[3-carboxymethoxy-phenyl]-2-[4-sulfophenyl]-2H-tetrazolium, inner salt) according to the manufacturers instructions.

[5] = test system: Human endothelial cells (HAEC); assay: In vitro hypoxic cold storage viability assay; type: cell-based
Method: Human endothelial cells (HAEC) were grown to confluence, then synchronized using depleted media for 16h. For hypothermia/hypoxia, cells were washed twice with PBS then incubated in University of Wisconsin (UW) solution in 95% N2/5% CO2 atmosphere at 4° C. for 24 hours. […] Shown are mean+/−SD, n=3. UW are cells treated only with UW preservation solution. Controls are cells not subjected to this protocol (cells are continuously oxygenated) but cultivated for the same amount of time in regular culture conditions. […] It should be noted that the hypoxic cold storage mimics the process occurring during graft preservation.

[6] = test system: Human Peripheral Blood Lymphocytes (hPBLs); assay: Cytotoxicity on human peripheral blood lymphocytes (MTS); type: cell-based; conditions: 0-100 μM tested, 24 hours, FIG. 4
Method: Viability was assessed by cell proliferation assay (MTS). % of cell viability was determined using the CellTiter 96® AQueous Non-Radioactive Cell Proliferation Assay (Promega). Data represent the quantitative analysis of six independent experiments with means±SD (n=6 individuals).

Question: For COc1cc(O)c2c(c1)OC(O)(c1ccc(OCc3ccccc3)cc1)CC2=O (centres unmarked) [compound 1], which “specificity for RIPK1 among the large panel of tested kinases” value [1] is on record?
Answer: Its value is “high specificity”.

Question: And the “initial amount of kinase still on the affinity matrix after competition” value (RIPK1)?
Answer: The value was 0.15%.

Question: What about the “cytotoxicity towards hRPE-1 cells” value (hRPE-1 cells) of the same molecule?
Answer: Its value is “not cytotoxic”.

Question: What about the “plasma membrane permeabilization induced by TNF-α (Propidium Iodide, FACS)” value ([2]; FIG. 2) of the same molecule?
Answer: The value was “inhibits”.

Question: And the “ATP depletion induced by TNF-α (CellTiter-Glo)” value ([2]; FIG. 3)?
Answer: Its value is “inhibits”.

Question: What about the “protection from death induced by NaIO3” value [3] of the same molecule?
Answer: Its value is “protects significantly”.

Question: What about the “concentration that protects cells from death induced by erastin” value [4] of the same molecule?
Answer: Its value is over 25 µM.

Question: What about the “cell survival, treatment during hypoxia” value ([5]; UW solution, 95% N2/5% CO2, 4° C., 24 hours, FIG. 10) of the same molecule?
Answer: The value was “measurable benefits on cell survival”.

Question: And the “cell survival, treatment during hypoxia and reoxygenation” value ([5]; UW solution, 95% N2/5% CO2, 4° C., 24 hours, then reoxygenation, FIG. 11)?
Answer: The value was “measurable benefits on cell survival”.

Question: What about the “effect on cell survival compared to the control inhibitors of necroptosis (Nec-1 and Nec-1s)” value ([5]; hypoxic cold storage) of the same molecule?
Answer: The value was “significantly better”.

Question: And the “concentration up to which not cytotoxic towards hPBLs” value [6]?
Answer: The value was at most 20 µM.
